Our source for the IC50, Dmax and DC50 values is patent publication US12310975B2, “Modulators of BCL6 proteolysis and associated methods of use” (Arvinas Operations, Inc., priority 2019, dated 2025).

As a reminder, the IC50 is the concentration needed to halve the response being measured. Lower therefore signals higher potency. In general, Dmax refers to the greatest extent of degradation seen. A higher Dmax goes with deep degradation.

The first assay has as its target BCL6 (Homo sapiens (Human), UniProt P41182). The experiment in a line: Immunofluorescence high content imaging of BCL6 degradation in T47D cells.
Details: not given
The assay is classed as cell-based. The gist of the method:
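T47D, 3 d compound exposure, 11-pt 3-fold series, top 0.1 or 1 μM final. Fix 4% PFA, Triton permeabilize, anti-BCL6 primary overnight 4 °C, Alexa-488 secondary. High-content imaging 10×, 4 fields/well, top-hat smoothing.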
Molecule `Cn1c(=O)c(-c2nnc[nH]2)cc2cc(Nc3nc(N4CCC(CN5CCN(c6ccc7c(c6)C(=O)N(C6CCC(=O)NC6=O)C7=O)CC5)CC4)ncc3Cl)ccc21` (stereo not drawn) [compound 282, 5-(4-{[1-(5-chloro-4-{[1-methyl-2-oxo-3-(4H-1,2,4-triazol-3-yl)-1,2-dihydroquinolin-6-yl]amino}pyrimidin-2-yl)piperidin-4-yl]methyl}piperazin-1-yl)-2-(2,6-dioxopiperidin-3-yl)-2,3-dihydro-1H-isoindole-1,3-dione] came in with an IC50 of at least 100 nM.
`CNC(=O)COc1cc2cc(Nc3nc(N4CCN(CC5CCN(c6ccc7c(c6)C(=O)N(C6CCC(=O)NC6=O)C7=O)CC5)CC4)ncc3Cl)ccc2n(C(C)C)c1=O` (stereo not drawn) [Exemplary Compound 263, 2-[[6-([5-chloro-2-[4-([1-[2-(2,6-dioxopiperidin-3-yl)-1,3-dioxoisoindol-5-yl]piperidin-4-yl]methyl)piperazin-1-yl]pyrimidin-4-yl]amino)-1-isopropyl-2-oxoquinolin-3-yl]oxy]-N-methylacetamide] showed an IC50 of 10 to 50 nM.
Still for that read-out and setting: then `CCn1c(=O)c(OCC(=O)NC)cc2cc(Nc3nc(N4CCC(OC5CCN(c6cccc7c6C(=O)N(C6CCC(=O)NC6=O)C7=O)CC5)CC4)ncc3Cl)ccc21` (stereo not drawn) [compound 292, 2-{[6-({5-chloro-2-[4-({1-[2-(2,6-dioxopiperidin-3-yl)-1,3-dioxo-2,3-dihydro-1H-isoindol-4-yl]piperidin-4-yl}oxy)piperidin-1-yl]pyrimidin-4-yl}amino)-1-ethyl-2-oxo-1,2-dihydroquinolin-3-yl]oxy}-N-methylacetamide], with below 10 nM; and `CCn1c(=O)c(OCC(=O)NC)cc2cc(Nc3nc(N4CCN(CC5CCN(c6cccc(C(=O)NC7CCC(=O)NC7=O)c6F)CC5)CC4)ncc3Cl)ccc21` (stereo not drawn) [compound 295, 3-[4-({4-[5-chloro-4-({1-ethyl-3-[(methylcarbamoyl)methoxy]-2-oxo-1,2-dihydroquinolin-6-yl}amino)pyrimidin-2-yl]piperazin-1-yl}methyl)piperidin-1-yl]-N-(2,6-dioxopiperidin-3-yl)-2-fluorobenzamide], with below 10 nM.

The assay is the same for the next values; noted with them: T47D.
Turning to `CNC(=O)COc1cc2cc(Nc3nc(N4CCN(CC5CCN(c6ccc7c(c6)C(=O)N(C6CCC(=O)NC6=O)C7=O)CC5)CC4)ncc3Cl)ccc2n(C(C)C)c1=O` (stereo not drawn) [Exemplary Compound 263, 2-[[6-([5-chloro-2-[4-([1-[2-(2,6-dioxopiperidin-3-yl)-1,3-dioxoisoindol-5-yl]piperidin-4-yl]methyl)piperazin-1-yl]pyrimidin-4-yl]amino)-1-isopropyl-2-oxoquinolin-3-yl]oxy]-N-methylacetamide], the maximal degradation (Dmax) was in the range of 50 to 70%.
Still for that read-out and setting: for `CCn1c(=O)c(OCC(=O)NC)cc2cc(Nc3nc(N4CCC(OC5CCN(c6cccc7c6C(=O)N(C6CCC(=O)NC6=O)C7=O)CC5)CC4)ncc3Cl)ccc21` (stereo not drawn) [compound 292, 2-{[6-({5-chloro-2-[4-({1-[2-(2,6-dioxopiperidin-3-yl)-1,3-dioxo-2,3-dihydro-1H-isoindol-4-yl]piperidin-4-yl}oxy)piperidin-1-yl]pyrimidin-4-yl}amino)-1-ethyl-2-oxo-1,2-dihydroquinolin-3-yl]oxy}-N-methylacetamide] the value was 50 to 70%; for `CCn1c(=O)c(OCC(=O)NC)cc2cc(Nc3nc(N4CCN(CC5CCN(c6cccc(C(=O)NC7CCC(=O)NC7=O)c6F)CC5)CC4)ncc3Cl)ccc21` (stereo not drawn) [compound 295, 3-[4-({4-[5-chloro-4-({1-ethyl-3-[(methylcarbamoyl)methoxy]-2-oxo-1,2-dihydroquinolin-6-yl}amino)pyrimidin-2-yl]piperazin-1-yl}methyl)piperidin-1-yl]-N-(2,6-dioxopiperidin-3-yl)-2-fluorobenzamide], 50 to 70%.

The assay is the same for the next values; noted with them: T47D cells.
`CNC(=O)COc1cc2cc(Nc3nc(N4CCN(CCC5CCN(c6ccc7c(c6)C(=O)N(C6CCC(=O)NC6=O)C7=O)CC5)CC4)ncc3Cl)ccc2n(C)c1=O` (stereo not drawn) [compound 322, 2-{[6-({5-chloro-2-[4-(2-{1-[2-(2,6-dioxopiperidin-3-yl)-1,3-dioxo-2,3-dihydro-1H-isoindol-5-yl]piperidin-4-yl}ethyl)piperazin-1-yl]pyrimidin-4-yl}amino)-1-methyl-2-oxo-1,2-dihydroquinolin-3-yl]oxy}-N-methylacetamide] gave a Dmax of 50 to 70% and an IC50 of 10 to 50 nM.
For `CNC(=O)COc1cc2cc(Nc3nc(N4CCC(CN5CCC(c6nc(C(=O)NC7CCC(=O)NC7=O)cs6)CC5)CC4)ncc3Cl)ccc2n(C)c1=O` (stereo not drawn) [compound 360, 2-[1-({1-[5-chloro-4-({1-methyl-3-[(methylcarbamoyl)methoxy]-2-oxo-1,2-dihydroquinolin-6-yl}amino)pyrimidin-2-yl]piperidin-4-yl}methyl)piperidin-4-yl]-N-(2,6-dioxopiperidin-3-yl)-1,3-thiazole-4-carboxamide] the same measures were 50 to 70% and 10 to 50 nM.
As for `CNC(=O)COc1cc2cc(Nc3nc(N4CCN(CC5CCN(c6ccc(C(=O)NC7CCC(=O)NC7=O)c(OC(C)C)c6)CC5)CC4)ncc3Cl)ccc2n(C)c1=O` (stereo not drawn) [compound 358, 4-[4-({4-[5-chloro-4-({1-methyl-3-[(methylcarbamoyl)methoxy]-2-oxo-1,2-dihydroquinolin-6-yl}amino)pyrimidin-2-yl]piperazin-1-yl}methyl)piperidin-1-yl]-N-(2,6-dioxopiperidin-3-yl)-2-(propan-2-yloxy)benzamide], the IC50 was at least 100 nM.
As for `CNC(=O)COc1cc2cc(Nc3nc(N4CCN(CC5CCN(C(=O)c6ccc(OC)c(N7CCC(=O)NC7=O)c6)CC5)CC4)ncc3Cl)ccc2n(C(C)C)c1=O` [compound 401, 2-{[6-({5-chloro-2-[4-({1-[3-(2,4-dioxo-1,3-diazinan-1-yl)-4-methoxybenzoyl]piperidin-4-yl}methyl)piperazin-1-yl]pyrimidin-4-yl}amino)-2-oxo-1-(propan-2-yl)-1,2-dihydroquinolin-3-yl]oxy}-N-methylacetamide], the Dmax was below 50% and the IC50 is below 10 nM.
Take `CNC(=O)COc1cc2cc(Nc3nc(N4CCC(OC5CC6(CCN(c7ccc8c(c7)CN(C7CCC(=O)NC7=O)C8=O)CC6)C5)CC4)ncc3Cl)ccc2n(C(C)C)c1=O` (stereo not drawn) [compound 431, 2-{[6-({5-chloro-2-[4-({7-[2-(2,6-dioxopiperidin-3-yl)-1-oxo-2,3-dihydro-1H-isoindol-5-yl]-7-azaspiro[3.5]nonan-2-yl}oxy)piperidin-1-yl]pyrimidin-4-yl}amino)-2-oxo-1-(propan-2-yl)-1,2-dihydroquinolin-3-yl]oxy}-N-methylacetamide]: the Dmax was in the range of 50 to 70% and the IC50 is below 10 nM.
For `CNC(=O)COc1cc2cc(Nc3nc(N4CCC(CN5CCC(c6ccc(C(=O)NC7CCC(=O)NC7=O)o6)CC5)CC4)ncc3Cl)ccc2n(C)c1=O` (stereo not drawn) [compound 361, 5-[1-({1-[5-chloro-4-({1-methyl-3-[(methylcarbamoyl)methoxy]-2-oxo-1,2-dihydroquinolin-6-yl}amino)pyrimidin-2-yl]piperidin-4-yl}methyl)piperidin-4-yl]-N-(2,6-dioxopiperidin-3-yl)furan-2-carboxamide] the same measures were below 50% and 10 to 50 nM.
The molecule `CNC(=O)COc1cc2cc(Nc3nc(N4CCN(CC5CCN(c6cc(OC)c(C(=O)NC7CCC(=O)NC7=O)c(OC)c6)CC5)CC4)ncc3Cl)ccc2n(C)c1=O` (stereo not drawn) [compound 368, 4-[4-({4-[5-chloro-4-({1-methyl-3-[(methylcarbamoyl)methoxy]-2-oxo-1,2-dihydroquinolin-6-yl}amino)pyrimidin-2-yl]piperazin-1-yl}methyl)piperidin-1-yl]-N-(2,6-dioxopiperidin-3-yl)-2,6-dimethoxybenzamide] gave a Dmax below 50% and an IC50 of 10 to 50 nM.

Staying with this assay, now noted: class symbols A-D, read-out: EC50 (nM)*.
For `CN1C(=O)CCc2cc(Nc3cc(OC4CCN(CCOCCOc5ccc6c(c5)C(=O)N(C5CCC(=O)NC5=O)C6=O)CC4)c([N+](=O)[O-])cc3Cl)ccc21` (stereo not drawn) [compound 73, 5-(2-(2-(4-(4-chloro-5-((1-methyl-2-oxo-1,2,3,4-tetrahydroquinolin-6-yl)amino)-2-nitrophenoxy)piperidin-1-yl)ethoxy)ethoxy)-2-(2,6-dioxopiperidin-3-yl)isoindoline-1,3-dione], the DC50 is above 100 nM.
Still for that read-out and setting: for `O=C1CCC(N2C(=O)c3ccc(N4CCN(CC5CCN(c6cc(Nc7ccc8c(c7)CCC(=O)N8)c(Cl)cc6[N+](=O)[O-])CC5)CC4)cc3C2=O)C(=O)N1` (stereo not drawn) [compound 92, 5-(4-((1-(4-chloro-2-nitro-5-((2-oxo-1,2,3,4-tetrahydroquinolin-6-yl)amino)phenyl)piperidin-4-yl)methyl)piperazin-1-yl)-2-(2,6-dioxopiperidin-3-yl)isoindoline-1,3-dione] the value was above 100 nM.
Still for that read-out and setting: then `CNC(=O)COc1cc2cc(Nc3nc(N4CCC(N(C)[C@H]5CC[C@@H](CN6CCN(c7ccc8c(c7)CN(C7CCC(=O)NC7=O)C8=O)CC6)CC5)CC4)ncc3Cl)ccc2n(C)c1=O` (stereo partly drawn) [compound 102, 2-((6-((5-chloro-2-(4-(((1s,4s)-4-((4-(2-(2,6-dioxopiperidin-3-yl)-1-oxoisoindolin-5-yl)piperazin-1-yl)methyl)cyclohexyl) (methyl)amino)piperidin-1-yl)pyrimidin-4-yl)amino)-1-methyl-2-oxo-1,2-dihydroquinolin-3-yl)oxy)-N-methylacetamide], with below 10 nM; and `CNC(=O)COc1cc2cc(Nc3nc(N4CCC(OCCOc5ccc6c(c5)CN(C5CCC(=O)NC5=O)C6=O)CC4)ncc3Cl)ccc2n(C)c1=O` (stereo not drawn) [compound 71, 2-((6-((5-chloro-2-(4-(2-((2-(2,6-dioxopiperidin-3-yl)-1-oxoisoindolin-5-yl)oxy)ethoxy)piperidin-1-yl)pyrimidin-4-yl)amino)-1-methyl-2-oxo-1,2-dihydroquinolin-3-yl)oxy)-N-methylacetamide], with 50 to 100 nM.
Same read-out and setting: for `CNC(=O)COc1cc2cc(Nc3nc(N4CCC(Cc5cn(CCOCCOCC(=O)N[C@H](C(=O)N6C[C@H](O)C[C@H]6C(=O)N[C@@H](C)c6ccc(-c7scnc7C)cc6)C(C)(C)C)nn5)CC4)ncc3Cl)ccc2n(C)c1=O` [compound 133, (2S,4R)-1-((S)-2-(2-(2-(2-(4-((1-(5-chloro-4-((1-methyl-3-(2-(methylamino)-2-oxoethoxy)-2-oxo-1,2-dihydroquinolin-6-yl)amino)pyrimidin-2-yl)piperidin-4-yl)methyl)-1H-1,2,3-triazol-1-yl)ethoxy)ethoxy)acetamido)-3,3-dimethylbutanoyl)-4-hydroxy-N-((S)-1-(4-(4-methylthiazol-5-yl)phenyl)ethyl)pyrrolidine-2-carboxamide] the value was above 100 nM; for `CNC(=O)COc1cc2cc(Nc3nc(N4CCC(OCCOCCOCCOCCOCCOc5ccc6c(c5)CN(C5(C)CCC(=O)NC5=O)C6=O)CC4)ncc3Cl)ccc2n(C)c1=O` (stereo not drawn) [compound 84, 2-((6-((5-chloro-2-(4-((14-((2-(3-methyl-2,6-dioxopiperidin-3-yl)-1-oxoisoindolin-5-yl)oxy)-3,6,9,12-tetraoxatetradecyl)oxy)piperidin-1-yl)pyrimidin-4-yl)amino)-1-methyl-2-oxo-1,2-dihydroquinolin-3-yl)oxy)-N-methylacetamide], 10 to 50 nM; for `CN1C(=O)CCc2cc(Nc3cc(N4CCC(OCCOCCOCCOCCOCCOc5ccc6c(c5)CN(C5CCC(=O)NC5=O)C6=O)CC4)c([N+](=O)[O-])cc3Cl)ccc21` (stereo not drawn) [compound 105, 3-(5-((14-((1-(4-chloro-5-((1-methyl-2-oxo-1,2,3,4-tetrahydroquinolin-6-yl)amino)-2-nitrophenyl)piperidin-4-yl)oxy)-3,6,9,12-tetraoxatetradecyl)oxy)-1-oxoisoindolin-2-yl)piperidine-2,6-dione], above 100 nM.
